Read-outs that look alike come from different tables or passages of the source.
How the values were obtained:
HCV genotype 1 = conditions: cited from earlier work
[1] = patients receiving high dosages of VX-135; cited from earlier work
[2] = human, in vivo; cited from earlier work
HCV replicon replication = assay: Inhibition of HCV replication (HCV replicon in Huh-luc/neo cells; extrapolated to primary human hepatocytes); type: cell-based
[3] = Half-life of the active triphosphate in human hepatocytes; type: in vitro ADME; conditions: plated in 12-well format
Method: Human hepatocyte cells used for half-life determinations were human liver hepatocyte 12-well format cells and were seeded at 0.67 million cells per well. Canine hepatocyte cells used for half-life determinations were beagle dog liver hepatocyte 12-well format cells and were seeded at 0.67 million cells per well. Monkey hepatocyte cells used for half-life determinations were Cynomolgus monkey liver hepatocyte 12-well format cells, and were seeded at 0.9 million cells per well. Rat hepatocyte cells for half-life determinations were Sprague-Dawley (SD) rat liver hepatocyte 12-well format cells, and were seeded at 0.67 million cells per well. All cells were obtained from Life Technologies.

human hepatocytes = assay: Determination of nucleoside concentrations (dephosphorylated 5′-OH nucleoside) in human hepatocyte media and cell extract; type: in vitro ADME; conditions: 20 μM Formula VII vs Formula II, 24 hours
Method: At 24 hours, media was removed and frozen. Cells were washed twice with cold PBS.
Supernatants were removed and analyzed by LC-MS/MS. […] Samples were centrifuged at 3000 rpm for 15 minutes. Supernatants were removed and analyzed by LC-MS/MS.
Hepatocyte media incubates were removed from the freezer, defrosted and vortexed. […] Supernatants were removed and analyzed by LC-MS/MS. […] Supernatants were removed and analyzed by LC-MS/MS.

human liver hepatocytes = assay: Triphosphate levels in human hepatocytes after incubation with prodrug; conditions: incubation with 5 μM prodrug over 48 hours
Method: Fresh liver hepatocytes were received plated in a 12-well or 6-well format (Life Technologies, Catalogue #HMFN12 and #HMNF06). Upon receipt, shipping media was removed immediately and replaced with 1 mL or 2 mL pre-warmed culture medium (Supplemented modified Chee's Media; Xenotech LLC, Catalogue# K2300) for 12- and 6-well formats, respectively. Cells were acclimated overnight at 37° C. with 5% CO2 atmosphere. […] Stability of the compounds in the absence of cells was also assayed. […] Cells were washed twice with cold PBS. 70% cold Methanol (0.75 mL or 1.5 mL, for 12- and 6-well formats, respectively) containing Formula X as an internal standard was added to each well and cells were gently removed from the plate by scraping. The recovered cells suspended in the methanol solution were aspirated into a vial and frozen at −80° C.
Cell solutions were extracted overnight at −80° C. in 70% methanol, removed from the freezer, defrosted and vortexed. Tubes were centrifuged at 3000 rpm for 15 minutes at 4° C. Supernatants were removed and analyzed by LC-MS/MS. […] Supernatants were removed and analyzed by LC-MS/MS. […] The analytes were quantified using linear regression of calibration standard values with instrument response. […]
The general methods of Example 33 were used to determine compound concentrations. […] The results were plotted and the linear regression was calculated using Microsoft Excel.

HCV genotype 1, 2 or 3 = conditions: once-daily 300 mg for seven days; cited from earlier work
HCV = conditions: several large clinical trials; cited from earlier work
[4] = beagle (dog), Sprague-Dawley (rat), cynomolgus monkey, range over human, dog, monkey and rat hepatocytes, read-out: half-life of active triphosphate in hepatocytes
[5] = 6 well plate (2 ml), 1.7 million cells per well
[6] = 12 well plate (1 ml), 0.67 million cells per well

CC(C)OC(=O)[C@H](C)NP(=S)(OC[C@H]1O[C@@H](n2ccc(=O)[nH]c2=O)[C@](C)(O)[C@@H]1O)Oc1ccccc1 (single isomer, unassigned) [VX-135]
completion of treatment rate (SVR12) (HCV genotype 1; 200 mg VX-135 in combination with daclatasvir, 12 weeks of treatment): 91%
sustained viral response rate four weeks after completion of treatment (SVR4) (HCV genotype 1; 200 mg VX-135 in combination with daclatasvir, treatment-naïve genotype 1, intent-to-treat): 83%
adverse event (HCV genotype 1; VX-135 in combination with daclatasvir, one patient): serious adverse event of vomiting/nausea
clinical toxicity finding [1]: liver toxicity

COc1nc(N)nc2c1ncn2[C@@H]1O[C@H](COP(=O)(N[C@@H](C)C(=O)OCC(C)(C)C)Oc2cccc3ccccc23)[C@@H](O)[C@@]1(C)O (some centres unmarked) [BMS-986094]
clinical safety outcome [2]: death of a patient due to heart failure

[2H]c1cn([C@@H]2O[C@H](C([2H])([2H])O[P@@](=O)(N[C@@H](C)C(=O)OC(C)C)Oc3ccccc3)[C@@H](O)[C@@]2(C)O)c(=O)[nH]c1=O [Formula II, (S)-isopropyl 2-(((S)-(((2R,3R,4R,5R)-5-(5-deutero-2,4-dioxo-3,4-dihydropyrimidin-1(2H)-yl)-3,4-dihydroxy-4-methyltetrahydrofuran-2-yl)dideuteromethoxy)(phenoxy)phosphoryl)amino)propanoate]
EC50 (HCV replicon replication; Hepatitis C virus, Hepatocyte, read-out: predicted EC50 in primary human hepatocytes): 6.25 to 10 nM

[2H]c1cn(C2OC(C([2H])([2H])OP(=O)(O)OP(=O)(O)OP(=O)(O)O)[C@@H](O)[C@@]2(C)O)c(=O)[nH]c1=O (some centres unmarked) [Formula IV]
half-life [3, 4]: 10 to 30 h
half-life ([3]; human, human hepatocytes, read-out: half-life of triphosphate): > 24 h

C[C@@]1(O)[C@H](O)[C@@H](CO)O[C@H]1n1ccc(=O)[nH]c1=O [Formula IX, 2′-C-methyluridine]
higher concentration of undeuterated dephosphorylated 2′-methyl uridine compared to 5′-deuterated form (Formula VI), cell extract (intracellular) (human hepatocytes; [5]): 2.8 fold
higher concentration of undeuterated dephosphorylated 2′-methyl uridine compared to 5′-deuterated form (Formula VI), first value, printed as cell extract (human hepatocytes; [5]): 1.5 fold
higher concentration of undeuterated dephosphorylated 2′-methyl uridine (Formula IX) compared to 5′-deuterated form (Formula VI), cell extract (intracellular) (human hepatocytes; [6]): 2.9 fold
higher concentration of undeuterated dephosphorylated 2′-methyl uridine (Formula IX) compared to 5′-deuterated form (Formula VI), media (extracellular) (human hepatocytes; [6]): 1.9 fold

[2H]c1cn(C2OC(C([2H])([2H])O)[C@@H](O)[C@@]2(C)O)c(=O)[nH]c1=O (some centres unmarked) [Formula VI, 5′-deuterated 2′-C-methyluridine]
activity against hepatitis C viral replication (HCV replicon replication; statement in description, poor substrate for nucleoside monophosphate kinase): little activity

C[C@@]1(F)[C@H](O)[C@@H](COP(=O)(O)OP(=O)(O)OP(=O)(O)O)O[C@H]1n1ccc(=O)[nH]c1=O [GS-7977-TP]
half-life [3, 4]: 8 to 23 h
time of peak triphosphate levels in human hepatocytes (human liver hepatocytes): 24 h

CC(C)OC(=O)[C@@H](C)N[P@@](=O)(OC[C@H]1O[C@@H](n2ccc(=O)[nH]c2=O)[C@](C)(Cl)[C@@H]1O)Oc1ccccc1 [IDX21437]
mean maximum reduction in viral load (HCV genotype 1, 2 or 3): 4.2-4.3 log 10 IU/mL

CC(C)OC(=O)[C@H](C)N[P@](=O)(OC[C@H]1O[C@@H](n2ccc(=O)[nH]c2=O)C(C)(F)C1O)Oc1ccccc1 (some centres unmarked) [Sofosbuvir]
sustained viral response (SVR) of twelve weeks, share of trial participants (HCV): 50-90%
